{"source": "ChEMBL document CHEMBL1129532", "about": "“Geranylgeranyl diphosphate-based inhibitors of post-translational geranylgeranylation of cellular proteins” (J Med Chem, 1996)", "key": {"[1]": {"molecular_target": "T1, Geranylgeranyl transferase type I (Homo sapiens, UniProt P49354+P53609)", "assay": "Inhibition of geranylgeranylation of P21rap in human PC-3 prostate cancer cells", "format": "functional, cell-based"}, "[2]": {"molecular_target": "PC-3 cells (Homo sapiens)", "assay": "Inhibition of human PC-3 prostate cancer cell line proliferation"}, "[3]": {"molecular_target": "T1, Geranylgeranyl transferase type I", "assay": "Inhibition of geranylgeranylation of P21rap in human PC-3 prostate cancer cells; values are per cent of control"}}, "note": "pIC50: −log10 of the molar value."}
{"compound": "CC(C)=CCC/C(C)=C/CC/C(C)=C/CC/C(C)=C/COC(=O)NS(N)(=O)=O", "values": [{"measurement": "pIC50", "setting": "[1]", "value": 4.55}, {"measurement": "pIC50", "setting": "[2]", "value": 4.65}, {"measurement": "residual activity", "setting": "[3]", "value": 10.8, "unit": "%"}]}
{"compound": "CCOP(=O)(O)CC(=O)NOC/C=C(\\C)CC/C=C(\\C)CC/C=C(\\C)CCC=C(C)C", "values": [{"measurement": "pIC50", "setting": "[1]", "value": 4.40}, {"measurement": "pIC50", "setting": "[2]", "value": 4.45}]}
